Results reported in patent US6667312B2, “Thioether substituted imidazoquinolines” (3M Innovative Properties Company, priority 2000, dated 2003).

Key:
[1] = test system: tumor necrosis factor (α); assay: Cytokine Induction in Human Cells: tumor necrosis factor; format: cell-based; design: key to Lowest Effective Concentration (μM) Tumor Necrosis Factor: A “*” indicates that no induction was seen at any of the tested concentrations; conditions: human PBMC, 18 to 24 hours, tested 30-0.014 μM, TNF by ELISA or IGEN assay; for minimal effective concentration: read-out: Lowest Effective Concentration (μM) Tumor Necrosis Factor
Source text: (§1) An in vitro human blood cell system is used to assess cytokine induction. Activity is based on the measurement of interferon and tumor necrosis factor (α) (IFN and TNF, respectively) secreted into culture media as described by Testerman et. al. In “Cytokine Induction by the Immunomodulators Imiquimod and S-27609”, Journal of Leukocyte Biology, 58, 365-372 (September, 1995).
(§2) Whole blood from healthy human donors is collected by venipuncture into EDTA vacutainer tubes. Peripheral blood mononuclear cells (PBMC) are separated from whole blood by density gradient centrifugation using Histopaque®-1077. Blood is diluted 1:1 with Dulbecco's Phosphate Buffered Saline (DPBS) or Hank's Balanced Salts Solution (HBSS). The PBMC layer is collected and washed twice with DPBS or HBSS and resuspended at 4×10^6 cells/mL in RPMI complete. The PBMC suspension is added to 48 well flat bottom sterile tissue culture plates (Costar, Cambridge, Mass. or Becton Dickinson Labware, Lincoln Park, N.J.) containing an equal volume of RPMI complete media containing test compound.
(§3) The compounds are solubilized in dimethyl sulfoxide (DMSO). The DMSO concentration should not exceed a final concentration of 1% for addition to the culture wells. The compounds are generally tested at concentrations ranging from 30-0.014 μM.
(§4) The solution of test compound is added at 60 μM to the first well containing RPMI complete and serial 3 fold dilutions are made in the wells. The PBMC suspension is then added to the wells in an equal volume, bringing the test compound concentrations to the desired range (30-0.014 μM). The final concentration of PBMC suspension is 2×10^6 cells/mL. The plates are covered with sterile plastic lids, mixed gently and then incubated for 18 to 24 hours at 37° C. in a 5% carbon dioxide atmosphere.
(§5) Following incubation the plates are centrifuged for 10 minutes at 1000 rpm (˜200× g) at 4° C. The cell-free culture supernatant is removed with a sterile polypropylene pipet and transferred to sterile polypropylene tubes. Samples are maintained at −30 to −70° C. until analysis. The samples are analyzed for interferon (α) by ELISA and for tumor necrosis factor (α) by ELISA or IGEN Assay
Tumor necrosis factor (α) (TNF) concentration is determined using ELISA kits available from Biosource International, Camarillo, Calif. Alternately, the TNF concentration can be determined by Origen® M-Series Immunoassay and read on an IGEN M-8 analyzer from IGEN International, Gaithersburg, Md. The immunoassay uses a human TNF capture and detection antibody pair from Biosource International, Camarillo, Calif. Results are expressed in pg/mL.
(§6) The table below lists the lowest concentration found to induce interferon and the lowest concentration found to induce tumor necrosis factor for each compound.

interferon (α) = assay: Cytokine Induction in Human Cells: interferon; format: cell-based; conditions: human PBMC, 18 to 24 hours, tested 30-0.014 μM, interferon (α) by ELISA; read-out: Lowest Effective Concentration (μM) Interferon
Source text: as §1, §2, §3, §4, §5
Interferon (α) concentration is determined by ELISA using a Human Multi-Species kit from PBL Biomedical Laboratories, New Brunswick, N.J. Results are expressed in pg/mL.
as §6

| melting point | SMILES | minimal effective concentration [1] | minimal effective concentration (interferon (α)) | Lowest Effective Concentration (μM) Tumor Necrosis Factor [1] |
| --- | --- | --- | --- | --- |
| 122 to 126 °C | CCCCc1nc2c(N)nc3ccccc3c2n1CCCCSc1ccc(F)cc1F [Example 37, 2-butyl-1-{4-[(2,4-difluorophenyl)thio]butyl}-1H-imidazo[4,5-c]quinolin-4-amine] | 1.11 µM | 0.37 µM |  |
| 190 to 193 °C | CCCCc1nc2c(N)nc3ccccc3c2n1CCCCS(=O)(=O)c1ccc(F)cc1F [Example 38, 2-butyl-1-{4-[(2,4-difluorophenyl)sulfonyl]butyl}-1H-imidazo[4,5-c]quinolin-4-amine] | 1.11 µM | 0.37 µM |  |
| 226 to 228 °C | CCCCc1nc2c(N)nc3ccccc3c2n1CCS(C)(=O)=O [Example 67, 2-butyl-1-[2-(methylsulfonyl)ethyl]-1H-imidazo[4,5-c]quinolin-4-amine] | 0.04 µM | 0.01 µM |  |
| 202 to 206 °C | Cc1nc2c(N)nc3ccccc3c2n1CCCCCCS(C)(=O)=O [Example 68, 2-methyl-1-[6-(methylsulfonyl)hexyl]-1H-imidazo[4,5-c]quinolin-4-amine] | 0.12 µM | 0.014 µM |  |
| 171 to 172 °C | Nc1nc2ccccc2c2c1ncn2CCCCCS(=O)(=O)c1ccccc1 [Example 69, 1-[5-(phenylsulfonyl)pentyl]-1H-imidazo[4,5-c]quinolin-4-amine] | 1.11 µM | 1.11 µM |  |
| 172 to 175 °C | COCCc1nc2c(N)nc3ccccc3c2n1CCCCCS(=O)(=O)c1ccccc1 [Example 70, 2-(2-methoxyethyl)-1-[5-(phenylsulfonyl)pentyl]-1H-imidazo[4,5-c]quinolin-4-amine] | 0.01 µM | 0.01 µM |  |
| 192 to 195 °C | CS(=O)(=O)CCCCCn1c(C(F)(F)F)nc2c(N)nc3ccccc3c21 [Example 71, 1-[5-(methylsulfonyl)pentyl]-2-(trifluoromethyl)-1H-imidazo[4,5-c]quinolin-4-amine] |  | 30 µM | * |

The remaining lines, values behind:

| SMILES | melting point | minimal effective concentration [1] | minimal effective concentration (interferon (α)) | Lowest Effective Concentration (μM) Tumor Necrosis Factor [1] |
| --- | --- | --- | --- | --- |
| CSCCn1c(C)nc2c(N)nc3ccccc3c21 [Example 32, 2-methyl-1-[2-(methylthio)ethyl]-1H-imidazo[4,5-c]quinolin-4-amine] | 193 to 195 °C | 0.12 µM | 0.12 µM |  |
| Cc1nc2c(N)nc3ccccc3c2n1CCS(C)(=O)=O [Example 33, 2-methyl-1-[2-(methylsulfonyl)ethyl]-1H-imidazo[4,5-c]quinolin-4-amine] | 242 to 245 °C | 10 µM | 3.33 µM |  |
| Cc1nc2c(N)nc3ccccc3c2n1CCCCS(C)(=O)=O [Example 34, 2-methyl-1-[4-(methylsulfonyl)butyl]-1H-imidazo[4,5-c]quinolin-4-amine] | 206 to 209 °C | 3.33 µM | 0.37 µM |  |
| CCc1nc2c(N)nc3ccccc3c2n1CCS(C)(=O)=O [Example 35, 2-ethyl-1-[2-(methylsulfonyl)ethyl]-1H-imidazo[4,5-c]quinolin-4-amine] | 222 to 225 °C | 3.33 µM | 1.11 µM |  |
| CCCc1nc2c(N)nc3ccccc3c2n1CCS(C)(=O)=O [Example 36, 1-[2-(methylsulfonyl)ethyl]-2-propyl-1H-imidazo[4,5-c]quinolin-4-amine] | 212 to 214 °C | 1.11 µM | 1.11 µM |  |
